Test results published in EP0655460B1, “Pharmacotherapeutical use of glutathione derivatives” (Ohlenschläger, Gerhard, Dr. med., priority 1987, dated 1989).
Like-named read-outs stand apart in the source and are kept apart here.

Assays:
Redoxstatus des Blutes [1] = settings: human venous blood, 600 mg langsam intravenös, 10 Minuten after application, after load, n = 50, mean ± SD
Protocol: 2.2) Selbstversuch am Menschen zur Verbesserung und/oder zur Normalisierung des Redorstatus des Blutes:
Im menschlichen Venenblut wurden nach definierter Sauerstoff-Mangel-Belastung die gleichen Parameter bestimmt wie im vorstehend gegchilderten Versuch. Insgesamt wurden 50 Versuche an verschiedenen Tagen durchgeführt.
Danach wurde-reduziertes Glutathion in einer Dosis von 600 mg langsam intravenös verabreicht.
Randbedingungen: Temperatur 20°C, Luftdruck 758 - 770 mm Hg.

[2] = tested on: malignen Melanoms vom Menschen; settings: 300 mg three times weekly
Protocol: 2.4) Versuch an 40 gesunden Graumäusen nach Transplantation eines malignen Melanoms vom Menschen.
40 gesunden Graumäusen wurden je 10^6 maligne Melanomzellen überimpft.
30 Tiere wurden vom Beginn der Versuchsreihe an drei mal wöchentlich mit je 300 mg reduziertem Glutathion behandelt.

[3] = cited from earlier work
Redoxstatus des Blutes [4] = settings: Kaninchen, Ohrvenenblut, 10 mg/kg intravenös, 5 - 10 Minuten after application, after load, n = 30, mean ± SD
Protocol: Bei 5 verschiedenen Kaninchen wurden in 30 Versuchen im venösen Blut folgende Parameter nach der Methode und mit dem gerät VINCENT gemessen: • Ohm'scher Widerstand: r • Redoxpotential EH bzw. Elektronenpotential: rH2 • pH-Wert: pH.
Die Werte wurden im Ohrvenenblut nach definierter Sauerstoffmangel-Belastung gemessen.
Danach wurde den Tieren reduziertes Glutathion in einer Dosis von 10 mg/kg Körpergewicht intravenös verabreicht.
5 - 10 Minuten nach der Applikation von reduziertem Glutathion wurden folgende Werte ermittelt:
Randbedingungen: Temperatur 20°C, Luftdruck 767 mm Hg.

Glutathion-Reduktase = Glutathion-Reduktase (Homo sapiens, UniProt P00390); settings: same conditions as 1.1 (0,5 mg, 37°C, 30 Minuten); n = 22, mean ± SD; Leerwert 9,5 ± 0,8
Sequence of Glutathion-Reduktase (P00390 44-522): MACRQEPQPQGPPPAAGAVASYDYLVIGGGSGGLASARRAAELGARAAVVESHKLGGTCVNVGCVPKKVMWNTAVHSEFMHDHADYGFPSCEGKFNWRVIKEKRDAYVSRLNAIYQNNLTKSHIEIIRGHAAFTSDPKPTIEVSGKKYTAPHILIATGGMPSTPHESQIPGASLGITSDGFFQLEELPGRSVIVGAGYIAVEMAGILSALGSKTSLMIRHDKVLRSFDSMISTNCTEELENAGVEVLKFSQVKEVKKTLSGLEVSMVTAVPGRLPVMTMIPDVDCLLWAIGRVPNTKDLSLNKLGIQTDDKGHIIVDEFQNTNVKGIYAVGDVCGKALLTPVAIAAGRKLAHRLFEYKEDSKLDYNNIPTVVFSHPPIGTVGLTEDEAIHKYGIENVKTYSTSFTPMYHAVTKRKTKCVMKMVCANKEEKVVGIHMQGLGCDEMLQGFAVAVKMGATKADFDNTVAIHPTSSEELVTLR
Protocol: (§1) Von 20 Patienten mit unterschiedlichen Erkrankungen wurden jeweils 10 ml menschlichen Venenblutes entnommen und dessen Gerinnungsfähigkeit durch Zusatz von Heparin aufgehoben. Als Parameter für die optimale Erythrozytenfunktion wurde vor und nach der Inkubation mit 0,5 mg reduziertem Glutathion bei 37°C während eines Zeitraumes von 30 Minuten der Gehalt an intraerythrozytärem reduziertem Glutathion bestimmt.
(§2) 1.2) In-vitro-Versuch an Zellensystemen menschlicher Erythrozyten:
(§3) Unter denselben Bedingungen wie bei vorstehend beschriebenem Versuch wurden die Enzyme Glukose-6-Phosphat-Dehydrogenase und Glutathion-Reduktase aus Erythrozyten von 22 Patienten in vitro untersucht.

[5] = tested on: Glukose-6-Phosphat-Dehydrogenase; settings: same conditions as 1.1 (0,5 mg, 37°C, 30 Minuten); n = 22, mean ± SD; Leerwert 148 ± 22
Protocol: as §1, §2, §3

[6] = Toxicity of the therapeutic dosage in small animals; type: in vivo; settings: small animals such as Graumäusen, Wistar-Ratten und Kaninchen; therapeutic dosage (2 - 5 mg/kg for man)
Protocol: Die therapeutische Dosierung, die sich im Tierversuch an Kleintieren wie Graumäusen, Wistar-Ratten und Kaninchen als untoxisch erwiesen hat, liegt für den Menschen in einem Bereich von 2 - 5 mg/kg Körpergewicht für eine Einzeldosis bei langsamer intravenöser Injektion, wobei das Injektionsvolumen 5 ml beträgt mit einem Gehalt an reduziertem Glutathion von 150 mg.

[7] = cited from earlier work; remark: listed apart in the source
[8] = cited from earlier work; remark: listed apart in the source
[9] = tested on: malignen Melanoms vom Menschen; settings: 4 mice, 10^6 melanoma cells, 250 mg three times weekly
Source text: 2.3) Versuch an 8 gesunden Graumäusen nach Transplantation eines malignen Melanoms vom Menschen.
In Fig. 1 ist das Wachstum des Tumors in Abhängigkeit von der Zeit dargestellt.

[10] = 30 treated mice, 10^6 melanoma cells

N[C@@H](CCC(=O)N[C@@H](CS)C(=O)NCC(=O)O)C(=O)O [reduziertes Glutathion, gamma-Glutamyl-cysteinyl-glycin]
pH-Wert (Redoxstatus des Blutes [1]; without: 7,41 ± 0,18): pH = 7,23 ± 0,11
Ohm'scher Widerstand r (Redoxstatus des Blutes [1]; without: 197 ± 14,5): r = 204 ± 12,3 Ohm/cm^3
weitere gestorbene Tiere innerhalb 20 Tagen [2, 10]: fünf
weitere gestorbene Tiere innerhalb 30 Tagen [2, 10]: sieben
gestorbene Tiere innerhalb 15 Tagen ([2]; 30 treated mice, 10^6 melanoma cells, controls died within 8 - 12 Tagen): drei
Anteil überlebender behandelter Tiere, 30 Tage Beobachtungszeitraum ([2]; of 30 treated mice): 50%
überlebende Tiere, 30 Tage Beobachtungszeitraum ([2]; of 30 treated mice): 15 Tiere
Löslichkeit in Wasser ([3]; Wasser): leicht löslich
Löslichkeit in physiologischer Kochsalzlösung ([3]; physiologischer Kochsalzlösung): leicht löslich
Löslichkeit in Äthanol ([3]; Äthanol): löslich
pH-Wert (Redoxstatus des Blutes [4]; without: 7,38 ± 0,21): pH = 7,15 ± 0,16
Ohm'scher Widerstand r (Redoxstatus des Blutes [4]; without: 199 ± 12): r = 202 ± 14 Ohm/cm^3
Glutathion-Reduktase, Werte nach Inkubation (Glutathion-Reduktase): 11,3 ± 1,2 U/ 10^11 Erys.
Glukose-6-Phosphat-Dehydrogenase, Werte nach Inkubation [5]: 179 ± 16 mU/ 10^9 Erys.
Toxizität der therapeutischen Dosierung im Tierversuch [6]: untoxisch
pK-Wert COOH(1) ([7]; COOH(1)): 3,53
pK-Wert COOH(2) ([7]; COOH(2)): 2,12
pK-Wert NH3 ^+ ([7]; NH3 ^+): 8,66
pK-Wert SH ([7]; SH): 9,66
biologische Halbwertszeit in der Augenlinse ([8]; human tissue: Augenlinse): ca. 30 Std.
biologische Halbwertszeit im Erythrozyten ([8]; human tissue: Erythrozyten): ca. 100 Std.
biologische Halbwertszeit im Gehirn ([8]; human tissue: Gehirn): ca. 70 Std.
biologische Halbwertszeit in der Leber ([8]; human tissue: Leber): ca. 4 Std.
Überleben ([9]; controls died within 8 - 14 Tagen): überlebten bis zur siebten Woche
Tumorwachstum ([9]; versus untreated controls): deutlich langsameres Tumorwachstum
